We go through two molecules from ChEMBL document CHEMBL4507319 (2021).

Test [1] deals with Casein kinase II subunit alpha (Homo sapiens) (UniProt P68400). The following applies: Compound concentration 1000.0 nM.
The target in test [2] is Cyclin-dependent kinase 11A (Homo sapiens) (UniProt Q9UQ88). The conditions noted are these: Compound concentration 1000.0 nM.
In test [3] the target is Tyrosine-protein kinase JAK1 (Homo sapiens) (UniProt P23458). The conditions noted are these: Compound concentration 1000.0 nM.
Test [4] concerns the target T1, Serine/threonine-protein kinase tousled-like 1 (Homo sapiens) (UniProt Q9UKI8).
T1 sequence (whole entry): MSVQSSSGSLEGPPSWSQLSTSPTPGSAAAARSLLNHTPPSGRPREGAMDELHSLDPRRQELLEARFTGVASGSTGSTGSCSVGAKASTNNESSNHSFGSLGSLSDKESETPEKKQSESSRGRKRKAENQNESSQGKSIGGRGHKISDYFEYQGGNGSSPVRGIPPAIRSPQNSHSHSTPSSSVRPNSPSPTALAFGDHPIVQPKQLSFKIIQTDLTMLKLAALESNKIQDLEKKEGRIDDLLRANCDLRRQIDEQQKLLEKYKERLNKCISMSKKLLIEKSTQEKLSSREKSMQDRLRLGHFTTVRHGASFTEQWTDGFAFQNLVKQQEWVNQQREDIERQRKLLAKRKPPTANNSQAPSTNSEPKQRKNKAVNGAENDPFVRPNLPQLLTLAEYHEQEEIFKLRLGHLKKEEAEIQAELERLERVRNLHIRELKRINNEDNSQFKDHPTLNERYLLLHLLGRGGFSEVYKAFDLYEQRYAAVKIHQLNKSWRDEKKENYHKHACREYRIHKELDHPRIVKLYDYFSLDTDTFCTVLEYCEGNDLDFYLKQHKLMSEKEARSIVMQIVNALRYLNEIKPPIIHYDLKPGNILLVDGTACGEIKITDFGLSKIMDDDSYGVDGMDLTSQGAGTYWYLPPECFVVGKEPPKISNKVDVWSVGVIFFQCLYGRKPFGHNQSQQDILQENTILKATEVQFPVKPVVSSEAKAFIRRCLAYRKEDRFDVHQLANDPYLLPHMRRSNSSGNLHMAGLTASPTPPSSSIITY
The following applies: Compound concentration 1000.0 nM.

In test [5] the test system is Phosphatidylinositol 4,5-bisphosphate 3-kinase catalytic subunit alpha isoform (Homo sapiens), P42336 [M1043I]. The conditions noted are these: Compound concentration 1000.0 nM.
Test [6] concerns the target Serine/threonine-protein kinase TAO1 (Homo sapiens) (UniProt Q7L7X3). The conditions noted are these: Compound concentration 1000.0 nM.
The target in test [7] is Ribosomal protein S6 kinase alpha-1 (Homo sapiens, UniProt Q15418). The following applies: Compound concentration 1000.0 nM.
Test [8] addresses Ribosomal protein S6 kinase alpha-2 (Homo sapiens, UniProt Q15349). The following applies: Compound concentration 1000.0 nM.
For test [9], the target named is T2, Myosin-IIIb (Homo sapiens) (UniProt Q8WXR4).
T2 sequence (whole entry): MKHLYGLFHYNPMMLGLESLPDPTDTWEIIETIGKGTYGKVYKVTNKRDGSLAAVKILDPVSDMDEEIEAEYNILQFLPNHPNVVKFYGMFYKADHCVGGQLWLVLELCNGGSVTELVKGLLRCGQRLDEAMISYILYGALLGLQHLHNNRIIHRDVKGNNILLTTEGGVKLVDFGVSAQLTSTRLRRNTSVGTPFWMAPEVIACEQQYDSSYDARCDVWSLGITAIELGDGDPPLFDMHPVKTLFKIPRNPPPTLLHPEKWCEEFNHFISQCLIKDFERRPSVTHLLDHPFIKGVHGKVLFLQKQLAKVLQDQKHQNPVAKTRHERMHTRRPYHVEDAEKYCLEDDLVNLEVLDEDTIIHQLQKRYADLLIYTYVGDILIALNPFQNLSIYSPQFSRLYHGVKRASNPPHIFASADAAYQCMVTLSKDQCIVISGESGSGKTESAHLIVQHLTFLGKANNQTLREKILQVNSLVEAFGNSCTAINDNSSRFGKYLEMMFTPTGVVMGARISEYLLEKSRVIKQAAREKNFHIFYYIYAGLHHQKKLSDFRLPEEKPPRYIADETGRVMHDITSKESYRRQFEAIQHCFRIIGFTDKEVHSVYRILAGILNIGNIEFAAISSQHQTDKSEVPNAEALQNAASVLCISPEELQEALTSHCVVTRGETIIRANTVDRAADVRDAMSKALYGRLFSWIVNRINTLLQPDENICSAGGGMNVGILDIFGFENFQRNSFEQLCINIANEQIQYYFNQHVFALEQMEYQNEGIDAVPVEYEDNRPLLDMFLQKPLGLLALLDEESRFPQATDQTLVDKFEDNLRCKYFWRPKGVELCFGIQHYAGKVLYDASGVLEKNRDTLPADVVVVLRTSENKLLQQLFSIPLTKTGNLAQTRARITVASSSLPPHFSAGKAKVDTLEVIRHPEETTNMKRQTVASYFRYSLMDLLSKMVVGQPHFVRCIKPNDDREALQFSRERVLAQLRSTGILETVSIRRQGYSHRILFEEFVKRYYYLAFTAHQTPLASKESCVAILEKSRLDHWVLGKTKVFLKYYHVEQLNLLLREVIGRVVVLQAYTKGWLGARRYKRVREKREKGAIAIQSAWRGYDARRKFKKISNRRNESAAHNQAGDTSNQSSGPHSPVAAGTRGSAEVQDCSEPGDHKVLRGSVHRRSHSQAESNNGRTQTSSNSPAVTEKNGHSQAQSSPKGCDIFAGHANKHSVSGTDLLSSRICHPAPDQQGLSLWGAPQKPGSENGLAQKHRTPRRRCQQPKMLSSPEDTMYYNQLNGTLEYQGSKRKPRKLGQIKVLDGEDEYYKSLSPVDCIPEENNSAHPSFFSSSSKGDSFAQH
The conditions noted are these: Compound concentration 1000.0 nM.

The target of test [10] is Muscarinic acetylcholine receptor M1 (Homo sapiens) (UniProt P11229). The following applies: Compound concentration 10.0 uM.
For test [11], the target named is MAP/microtubule affinity-regulating kinase 3 (Homo sapiens) (UniProt P27448). The conditions noted are these: Compound concentration 1000.0 nM.
Chain of MAP/microtubule affinity-regulating kinase 3 (Homo sapiens) (P27448 whole entry, looked up): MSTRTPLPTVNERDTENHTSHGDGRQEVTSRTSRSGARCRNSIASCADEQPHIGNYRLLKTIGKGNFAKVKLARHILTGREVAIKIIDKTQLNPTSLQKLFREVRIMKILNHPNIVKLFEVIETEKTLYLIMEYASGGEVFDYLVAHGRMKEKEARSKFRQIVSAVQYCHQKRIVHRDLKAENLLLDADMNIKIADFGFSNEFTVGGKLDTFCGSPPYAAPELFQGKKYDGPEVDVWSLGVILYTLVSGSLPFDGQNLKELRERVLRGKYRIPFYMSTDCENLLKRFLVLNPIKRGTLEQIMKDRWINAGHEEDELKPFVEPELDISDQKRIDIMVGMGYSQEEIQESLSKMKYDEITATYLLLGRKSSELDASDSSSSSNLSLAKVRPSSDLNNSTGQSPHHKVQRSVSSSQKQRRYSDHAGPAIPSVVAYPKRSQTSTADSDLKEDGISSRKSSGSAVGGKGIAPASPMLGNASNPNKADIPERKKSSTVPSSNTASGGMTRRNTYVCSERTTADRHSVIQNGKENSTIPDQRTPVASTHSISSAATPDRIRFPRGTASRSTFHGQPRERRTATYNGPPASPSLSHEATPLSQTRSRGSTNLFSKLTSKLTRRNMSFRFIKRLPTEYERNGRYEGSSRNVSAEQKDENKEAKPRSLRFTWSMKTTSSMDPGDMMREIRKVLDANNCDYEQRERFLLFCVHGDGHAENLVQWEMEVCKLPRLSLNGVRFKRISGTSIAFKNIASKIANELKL

Chain of Cyclin-dependent kinase 11A (Homo sapiens) (Q9UQ88 whole entry): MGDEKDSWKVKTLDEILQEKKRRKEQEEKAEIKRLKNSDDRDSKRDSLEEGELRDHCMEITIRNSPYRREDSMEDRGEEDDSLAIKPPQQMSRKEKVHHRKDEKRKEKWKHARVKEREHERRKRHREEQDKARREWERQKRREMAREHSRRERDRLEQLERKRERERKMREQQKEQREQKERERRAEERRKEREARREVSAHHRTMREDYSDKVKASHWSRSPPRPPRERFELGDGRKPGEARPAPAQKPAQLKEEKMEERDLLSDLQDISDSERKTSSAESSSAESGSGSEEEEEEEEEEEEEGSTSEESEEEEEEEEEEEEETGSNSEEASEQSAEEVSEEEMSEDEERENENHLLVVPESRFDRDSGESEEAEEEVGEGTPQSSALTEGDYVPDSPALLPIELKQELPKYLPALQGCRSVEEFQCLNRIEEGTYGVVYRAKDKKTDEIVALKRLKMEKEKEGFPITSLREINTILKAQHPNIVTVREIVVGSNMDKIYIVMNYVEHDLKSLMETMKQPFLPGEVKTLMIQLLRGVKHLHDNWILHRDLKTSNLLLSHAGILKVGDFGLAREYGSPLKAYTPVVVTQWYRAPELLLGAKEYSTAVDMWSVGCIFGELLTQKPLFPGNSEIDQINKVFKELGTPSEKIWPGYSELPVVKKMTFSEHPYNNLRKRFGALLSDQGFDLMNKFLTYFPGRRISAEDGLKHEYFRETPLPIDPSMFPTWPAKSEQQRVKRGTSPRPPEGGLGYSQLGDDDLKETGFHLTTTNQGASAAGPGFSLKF
Chain of Serine/threonine-protein kinase TAO1 (Homo sapiens) (Q7L7X3 whole entry): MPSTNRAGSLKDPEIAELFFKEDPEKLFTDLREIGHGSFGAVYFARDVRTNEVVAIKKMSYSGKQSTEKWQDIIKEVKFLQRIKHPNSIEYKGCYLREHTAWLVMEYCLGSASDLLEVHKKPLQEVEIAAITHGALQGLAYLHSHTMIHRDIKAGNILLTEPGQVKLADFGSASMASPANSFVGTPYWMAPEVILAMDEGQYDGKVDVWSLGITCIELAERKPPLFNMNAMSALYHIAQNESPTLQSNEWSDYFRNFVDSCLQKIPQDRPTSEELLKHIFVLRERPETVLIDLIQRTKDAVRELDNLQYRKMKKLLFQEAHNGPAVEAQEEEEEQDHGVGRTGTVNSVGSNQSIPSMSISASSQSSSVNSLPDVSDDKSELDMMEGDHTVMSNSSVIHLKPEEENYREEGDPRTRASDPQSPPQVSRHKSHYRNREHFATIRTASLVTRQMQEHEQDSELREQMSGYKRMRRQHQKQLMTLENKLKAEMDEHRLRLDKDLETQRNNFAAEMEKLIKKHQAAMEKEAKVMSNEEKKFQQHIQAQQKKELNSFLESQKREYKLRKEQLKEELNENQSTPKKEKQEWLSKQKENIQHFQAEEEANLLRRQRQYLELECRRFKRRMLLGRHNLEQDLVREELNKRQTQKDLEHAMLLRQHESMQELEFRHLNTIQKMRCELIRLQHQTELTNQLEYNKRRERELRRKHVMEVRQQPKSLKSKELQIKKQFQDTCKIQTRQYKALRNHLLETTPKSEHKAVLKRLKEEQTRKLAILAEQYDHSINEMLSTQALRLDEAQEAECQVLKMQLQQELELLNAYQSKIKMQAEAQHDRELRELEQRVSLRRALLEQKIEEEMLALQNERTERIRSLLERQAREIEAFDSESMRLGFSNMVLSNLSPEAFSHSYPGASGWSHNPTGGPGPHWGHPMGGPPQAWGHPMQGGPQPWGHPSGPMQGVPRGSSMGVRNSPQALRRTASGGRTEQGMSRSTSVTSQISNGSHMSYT
Chain of Casein kinase II subunit alpha (Homo sapiens) (P68400 whole entry, looked up): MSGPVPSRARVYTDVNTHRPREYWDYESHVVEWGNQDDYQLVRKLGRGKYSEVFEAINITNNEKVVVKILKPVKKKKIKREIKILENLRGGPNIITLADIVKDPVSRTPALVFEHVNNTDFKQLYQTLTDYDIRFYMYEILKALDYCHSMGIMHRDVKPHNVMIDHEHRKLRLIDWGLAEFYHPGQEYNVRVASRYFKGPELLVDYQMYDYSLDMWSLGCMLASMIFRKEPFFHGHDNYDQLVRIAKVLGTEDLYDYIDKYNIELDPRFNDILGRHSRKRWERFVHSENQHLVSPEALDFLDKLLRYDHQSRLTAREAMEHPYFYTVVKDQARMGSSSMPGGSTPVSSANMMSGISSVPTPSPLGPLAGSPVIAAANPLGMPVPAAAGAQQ
Chain of Ribosomal protein S6 kinase alpha-1 (Q15418 whole entry): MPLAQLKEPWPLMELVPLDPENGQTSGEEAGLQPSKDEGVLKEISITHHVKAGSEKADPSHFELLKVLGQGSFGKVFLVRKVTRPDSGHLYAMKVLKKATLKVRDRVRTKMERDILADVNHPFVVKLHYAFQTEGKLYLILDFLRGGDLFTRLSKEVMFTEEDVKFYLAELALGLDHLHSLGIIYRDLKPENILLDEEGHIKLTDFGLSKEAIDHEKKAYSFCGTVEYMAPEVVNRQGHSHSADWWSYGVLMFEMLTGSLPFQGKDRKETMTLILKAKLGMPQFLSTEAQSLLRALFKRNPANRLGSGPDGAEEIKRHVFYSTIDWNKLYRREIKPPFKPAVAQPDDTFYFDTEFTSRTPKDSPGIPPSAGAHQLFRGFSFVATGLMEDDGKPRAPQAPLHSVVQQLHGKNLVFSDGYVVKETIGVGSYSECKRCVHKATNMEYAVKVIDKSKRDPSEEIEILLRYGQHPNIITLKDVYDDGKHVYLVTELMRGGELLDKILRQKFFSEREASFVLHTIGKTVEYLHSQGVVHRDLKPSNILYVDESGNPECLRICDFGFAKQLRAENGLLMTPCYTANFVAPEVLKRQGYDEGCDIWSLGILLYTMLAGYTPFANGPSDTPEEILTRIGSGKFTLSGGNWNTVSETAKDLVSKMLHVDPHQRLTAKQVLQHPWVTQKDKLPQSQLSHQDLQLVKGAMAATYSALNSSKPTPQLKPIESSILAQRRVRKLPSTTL
Chain of Tyrosine-protein kinase JAK1 (Homo sapiens) (P23458 whole entry): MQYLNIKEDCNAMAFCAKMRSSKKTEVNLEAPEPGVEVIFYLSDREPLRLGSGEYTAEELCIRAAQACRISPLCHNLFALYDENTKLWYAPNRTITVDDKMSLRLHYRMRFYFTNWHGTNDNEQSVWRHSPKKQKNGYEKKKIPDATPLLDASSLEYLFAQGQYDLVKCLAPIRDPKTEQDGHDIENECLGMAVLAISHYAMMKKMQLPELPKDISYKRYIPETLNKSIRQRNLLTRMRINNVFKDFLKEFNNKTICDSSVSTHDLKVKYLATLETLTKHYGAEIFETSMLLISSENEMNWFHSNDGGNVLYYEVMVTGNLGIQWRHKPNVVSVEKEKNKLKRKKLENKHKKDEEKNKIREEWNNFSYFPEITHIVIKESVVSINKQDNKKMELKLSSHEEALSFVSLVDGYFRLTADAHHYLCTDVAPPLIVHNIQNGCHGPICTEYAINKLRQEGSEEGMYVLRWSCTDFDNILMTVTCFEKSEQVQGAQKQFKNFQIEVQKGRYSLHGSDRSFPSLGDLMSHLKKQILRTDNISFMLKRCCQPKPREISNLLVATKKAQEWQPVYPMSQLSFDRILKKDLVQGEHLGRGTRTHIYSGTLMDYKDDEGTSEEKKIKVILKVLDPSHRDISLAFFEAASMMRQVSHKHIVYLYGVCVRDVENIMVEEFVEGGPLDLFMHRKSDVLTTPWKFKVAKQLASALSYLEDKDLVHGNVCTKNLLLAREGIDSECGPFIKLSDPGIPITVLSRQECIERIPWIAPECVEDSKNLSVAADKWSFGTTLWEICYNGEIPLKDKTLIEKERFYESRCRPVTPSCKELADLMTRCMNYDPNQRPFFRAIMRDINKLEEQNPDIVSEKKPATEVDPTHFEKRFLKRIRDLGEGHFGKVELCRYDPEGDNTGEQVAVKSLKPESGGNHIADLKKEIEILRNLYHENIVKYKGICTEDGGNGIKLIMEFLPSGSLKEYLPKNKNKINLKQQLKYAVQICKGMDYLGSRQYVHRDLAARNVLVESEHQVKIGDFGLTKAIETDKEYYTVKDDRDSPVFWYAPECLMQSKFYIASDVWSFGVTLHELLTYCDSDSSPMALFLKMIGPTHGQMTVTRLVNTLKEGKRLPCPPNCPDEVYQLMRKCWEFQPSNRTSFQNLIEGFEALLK

As a reminder, the residual activity is the activity still measured, relative to the control. For orientation: inhibition means the relative decrease from the control value, in per cent. As for `CC1=C(C#N)C(c2ccc3c(c2)c(NC(=O)c2ccccc2C)nn3C)C(C#N)=C(C)N1` [BAY-974], the residual activity is 63% in test [1]; 100% in test [2]; 90% in [3]; 88% in test [4]; 100% in test [5]; 100% in [6]. In addition, the residual activity in test [7] was 100%; in test [8] it was 94%; in test [9], 100%; in test [11], 92%. Also, in test [10], the inhibition was -1.37%.

For `CCc1ccccc1C(=O)Nc1n[nH]c2c(C)c(F)c(C3C(C#N)=C(C)N(C)C(C)=C3C#N)cc12` [BAY-3827], the residual activity was 100% in [1]; 86% in test [2]; 91% in test [3]; 100% in test [4]; 75% in test [5]; 100% in [6]. Further, the residual activity is 1.8% in test [7], 100% in test [8], 77% in test [9] and 30% in test [11]. For the same molecule, the inhibition in test [10] is 2.81%.
